Values after ≈ are worked out from the molar mass of the structure shown.

The MIC90 is an inhibitory concentration at the 90% level, which refers to growth in some studies and to a panel of isolates in others. A low value points to higher susceptibility.

The subject of the experiment is Ofloxacin-resistant Enterobacteriaceae. Description: organism not typed. Type of experiment: cell-based.
For `CCn1cc(C(=O)O)c(=O)c2cc(F)c(N3CCNCC3)cc21` [Norfloxacin], the MIC90 was 128 µg/mL (≈ 401 µM).
For `CC1COc2c(N3CCN(C)CC3)c(F)cc3c(=O)c(C(=O)O)cn1c23` (stereo not drawn) [Ofloxacin, ofloxacin] the value was 64 µg/mL (≈ 177 µM); for `N[C@@H]1CCCCN(c2c(F)cc3c(=O)c(C(=O)O)cn(C4CC4)c3c2Cl)C1` [Compound Having Formula IV], 16 µg/mL.
